Measured values published in patent publication US20200264182A1, “METHOD FOR DETECTING PROSTATE CANCER” (J-OIL MILLS, INC., priority 2017, published 2020).

How the values were obtained:
FAC binding constant = conditions: at 25° C.
Procedure: (§1) Details of the FAC method are described in Patent Document 2 filed by some of the present applicants, for example.
(§2) Binding constants (at 25° C.) of PhoSL, SRL, NSL and LSL belonging to the fucose α1→6 specific lectin for various sugar chains are shown in Tables 2 to 5.

[1] = FAC binding constant (Table 5 entry); conditions: Table 5: sugar chain having no fucose; at 25° C.
Procedure: as §1, §2

[2] = sugar chain having fucose other than α1→6 fucose

Binding constant for sugar chain No. 728 (FAC binding constant; Table 3: sugar chain having fucose other than α1→6 fucose): <1000 M⁻¹
Binding constant for sugar chain No. 419 (FAC binding constant; [2]): <1000 M⁻¹
Binding constant for sugar chain No. 420 (FAC binding constant; [2]): <1000 M⁻¹
Binding constant for sugar chain No. 718 (FAC binding constant; [2]): <1000 M⁻¹
Binding constant for sugar chain No. 719 (FAC binding constant; [2]): <1000 M⁻¹
Binding constant for sugar chain No. 720 (FAC binding constant; [2]): <1000 M⁻¹
Binding constant for sugar chain No. 721 (FAC binding constant; [2]): <1000 M⁻¹
Binding constant for sugar chain No. 722 (FAC binding constant; [2]): <1000 M⁻¹
Binding constant for sugar chain No. 723 (FAC binding constant; [2]): <1000 M⁻¹
Binding constant for sugar chain No. 726 (FAC binding constant; [2]): <1000 M⁻¹
Binding constant for sugar chain No. 727 (FAC binding constant; [2]): <1000 M⁻¹
Binding constant for sugar chain No. 729 (FAC binding constant; [2]): <1000 M⁻¹
Binding constant for sugar chain No. 730 (FAC binding constant; [2]): <1000 M⁻¹
Binding constant for sugar chain No. 731 (FAC binding constant; [2]): <1000 M⁻¹
Binding constant for sugar chain No. 739 (FAC binding constant; [2]): <1000 M⁻¹
Binding constant for sugar chain No. 909 (FAC binding constant; [2]): <1000 M⁻¹
Binding constant for sugar chain No. 910 (FAC binding constant; [2]): <1000 M⁻¹
Binding constant for sugar chain No. 931 (FAC binding constant; [2]): <1000 M⁻¹
Binding constant for sugar chain No. 932 (FAC binding constant; [2]): <1000 M⁻¹
Binding constant for sugar chain No. 933 (FAC binding constant; [2]): <1000 M⁻¹
Binding constant for sugar chain No. 001 (FAC binding constant; sugar chain having no fucose): <1000 M⁻¹
Binding constant for sugar chain No. 002 (FAC binding constant; sugar chain having no fucose): <1000 M⁻¹
Binding constant for sugar chain No. 003 (FAC binding constant; sugar chain having no fucose): <1000 M⁻¹
Binding constant for sugar chain No. 004 (FAC binding constant; sugar chain having no fucose): <1000 M⁻¹
Binding constant for sugar chain No. 005 (FAC binding constant; sugar chain having no fucose): <1000 M⁻¹
Binding constant for sugar chain No. 006 (FAC binding constant; sugar chain having no fucose): <1000 M⁻¹
Binding constant for sugar chain No. 007 (FAC binding constant; sugar chain having no fucose): <1000 M⁻¹
Binding constant for sugar chain No. 008 (FAC binding constant; sugar chain having no fucose): <1000 M⁻¹
Binding constant for sugar chain No. 009 (FAC binding constant; sugar chain having no fucose): <1000 M⁻¹
Binding constant for sugar chain No. 010 (FAC binding constant; sugar chain having no fucose): <1000 M⁻¹
Binding constant for sugar chain No. 011 (FAC binding constant; sugar chain having no fucose): <1000 M⁻¹
Binding constant for sugar chain No. 012 (FAC binding constant; sugar chain having no fucose): <1000 M⁻¹
Binding constant for sugar chain No. 013 (FAC binding constant; sugar chain having no fucose): <1000 M⁻¹
Binding constant for sugar chain No. 014 (FAC binding constant; sugar chain having no fucose): <1000 M⁻¹
Binding constant for sugar chain No. 101 (FAC binding constant; sugar chain having no fucose): <1000 M⁻¹
Binding constant for sugar chain No. 103 (FAC binding constant; sugar chain having no fucose): <1000 M⁻¹
Binding constant for sugar chain No. 104 (FAC binding constant; sugar chain having no fucose): <1000 M⁻¹
Binding constant for sugar chain No. 105 (FAC binding constant; sugar chain having no fucose): <1000 M⁻¹
Binding constant for sugar chain No. 107 (FAC binding constant; sugar chain having no fucose): <1000 M⁻¹
Binding constant for sugar chain No. 108 (FAC binding constant; sugar chain having no fucose): <1000 M⁻¹
Binding constant for sugar chain No. 301 (FAC binding constant; sugar chain having no fucose): <1000 M⁻¹
Binding constant for sugar chain No. 304 (FAC binding constant; sugar chain having no fucose): <1000 M⁻¹
Binding constant for sugar chain No. 305 (FAC binding constant; sugar chain having no fucose): <1000 M⁻¹
Binding constant for sugar chain No. 307 (FAC binding constant; sugar chain having no fucose): <1000 M⁻¹
Binding constant for sugar chain No. 308 (FAC binding constant; sugar chain having no fucose): <1000 M⁻¹
Binding constant for sugar chain No. 313 (FAC binding constant; sugar chain having no fucose): <1000 M⁻¹
Binding constant for sugar chain No. 314 (FAC binding constant; sugar chain having no fucose): <1000 M⁻¹
Binding constant for sugar chain No. 323 (FAC binding constant; sugar chain having no fucose): <1000 M⁻¹
Binding constant for sugar chain No. 501 (FAC binding constant; sugar chain having no fucose): <1000 M⁻¹
Binding constant for sugar chain No. 502 (FAC binding constant; sugar chain having no fucose): <1000 M⁻¹
Binding constant for sugar chain No. 503 (FAC binding constant; sugar chain having no fucose): <1000 M⁻¹
Binding constant for sugar chain No. 504 (FAC binding constant; sugar chain having no fucose): <1000 M⁻¹
Binding constant for sugar chain No. 701 (FAC binding constant; sugar chain having no fucose): <1000 M⁻¹
Binding constant for sugar chain No. 702 (FAC binding constant; sugar chain having no fucose): <1000 M⁻¹
Binding constant for sugar chain No. 703 (FAC binding constant; sugar chain having no fucose): <1000 M⁻¹
Binding constant for sugar chain No. 704 (FAC binding constant; sugar chain having no fucose): <1000 M⁻¹
Binding constant for sugar chain No. 705 (FAC binding constant; sugar chain having no fucose): <1000 M⁻¹
Binding constant for sugar chain No. 706 (FAC binding constant; sugar chain having no fucose): <1000 M⁻¹
Binding constant for sugar chain No. 707 (FAC binding constant; sugar chain having no fucose): <1000 M⁻¹
Binding constant for sugar chain No. 708 (FAC binding constant; sugar chain having no fucose): <1000 M⁻¹
Binding constant for sugar chain No. 709 (FAC binding constant; sugar chain having no fucose): <1000 M⁻¹
Binding constant for sugar chain No. 710 (FAC binding constant; sugar chain having no fucose): <1000 M⁻¹
Binding constant for sugar chain No. 711 (FAC binding constant; sugar chain having no fucose): <1000 M⁻¹
Binding constant for sugar chain No. 712 (FAC binding constant; sugar chain having no fucose): <1000 M⁻¹
Binding constant for sugar chain No. 713 (FAC binding constant; sugar chain having no fucose): <1000 M⁻¹
Binding constant for sugar chain No. 715 (FAC binding constant; sugar chain having no fucose): <1000 M⁻¹
Binding constant for sugar chain No. 716 (FAC binding constant; sugar chain having no fucose): <1000 M⁻¹
Binding constant for sugar chain No. 717 (FAC binding constant; sugar chain having no fucose): <1000 M⁻¹
Binding constant for sugar chain No. 724 (FAC binding constant; sugar chain having no fucose): <1000 M⁻¹
Binding constant for sugar chain No. 725 (FAC binding constant; sugar chain having no fucose): <1000 M⁻¹
Binding constant for sugar chain No. 732 (FAC binding constant; sugar chain having no fucose): <1000 M⁻¹
Binding constant for sugar chain No. 733 (FAC binding constant; sugar chain having no fucose): <1000 M⁻¹
Binding constant for sugar chain No. 734 (FAC binding constant; sugar chain having no fucose): <1000 M⁻¹
Binding constant for sugar chain No. 735 (FAC binding constant; sugar chain having no fucose): <1000 M⁻¹
Binding constant for sugar chain No. 736 (FAC binding constant; sugar chain having no fucose): <1000 M⁻¹
Binding constant for sugar chain No. 737 (FAC binding constant; sugar chain having no fucose): <1000 M⁻¹
Binding constant for sugar chain No. 738 (FAC binding constant; sugar chain having no fucose): <1000 M⁻¹
Binding constant for sugar chain No. 901 (FAC binding constant; sugar chain having no fucose): <1000 M⁻¹
Binding constant for sugar chain No. 902 (FAC binding constant; sugar chain having no fucose): <1000 M⁻¹
Binding constant for sugar chain No. 903 (FAC binding constant; sugar chain having no fucose): <1000 M⁻¹
Binding constant for sugar chain No. 905 (FAC binding constant; sugar chain having no fucose): <1000 M⁻¹
Binding constant for sugar chain No. 906 (FAC binding constant; sugar chain having no fucose): <1000 M⁻¹
Binding constant for sugar chain No. 907 (FAC binding constant; sugar chain having no fucose): <1000 M⁻¹
Binding constant for sugar chain No. 015 (FAC binding constant; sugar chain having α1→6 fucose): 190000 M⁻¹
Binding constant for sugar chain No. 201 (FAC binding constant; sugar chain having α1→6 fucose): 230000 M⁻¹
Binding constant for sugar chain No. 202 (FAC binding constant; sugar chain having α1→6 fucose): 230000 M⁻¹
Binding constant for sugar chain No. 203 (FAC binding constant; sugar chain having α1→6 fucose): 200000 M⁻¹
Binding constant for sugar chain No. 401 (FAC binding constant; sugar chain having α1→6 fucose): 350000 M⁻¹
Binding constant for sugar chain No. 402 (FAC binding constant; sugar chain having α1→6 fucose): 200000 M⁻¹
Binding constant for sugar chain No. 403 (FAC binding constant; sugar chain having α1→6 fucose): 340000 M⁻¹
Binding constant for sugar chain No. 404 (FAC binding constant; sugar chain having α1→6 fucose): 390000 M⁻¹
Binding constant for sugar chain No. 405 (FAC binding constant; sugar chain having α1→6 fucose): 320000 M⁻¹
Binding constant for sugar chain No. 406 (FAC binding constant; sugar chain having α1→6 fucose): 220000 M⁻¹
Binding constant for sugar chain No. 407 (FAC binding constant; sugar chain having α1→6 fucose): 280000 M⁻¹
Binding constant for sugar chain No. 410 (FAC binding constant; sugar chain having α1→6 fucose): 220000 M⁻¹
Binding constant for sugar chain No. 413 (FAC binding constant; sugar chain having α1→6 fucose): 280000 M⁻¹
Binding constant for sugar chain No. 418 (FAC binding constant; sugar chain having α1→6 fucose): 220000 M⁻¹
Binding constant for sugar chain No. 601 (FAC binding constant; sugar chain having α1→6 fucose): 240000 M⁻¹
Binding constant for sugar chain No. 602 (FAC binding constant; sugar chain having α1→6 fucose): 120000 M⁻¹
Binding constant for sugar chain No. 728 [1]: <1000 M⁻¹
Substance: LSL: fucose α1→6 specific lectin that can be extracted from Lepista sordida, SEQ ID No. 3
